Laboratory results published in the supplement of paper PMC10307832.

Experiments:
Assay in all cases: relative viability (nuclei count vs DMSO), 5 days (fraction); higher = more cells survive
AT-7519 + OSI-027 = compound: O=C(NC1CCNCC1)c1n[nH]cc1NC(=O)c1c(Cl)cccc1Cl [AT-7519] + COc1cccc2cc(-c3nc([C@H]4CC[C@H](C(=O)O)CC4)n4ncnc(N)c34)[nH]c12 [OSI-027] (partner 0.5 µM)
In short: (§1)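 Lung cancer cell lines in 1536-well plates got either a single drug or a fixed anchor-drug dose together with five library-drug doses (not always all listed) in √10 steps, by pin tool, on the day after seeding. Nuclei were counted after 5 days, and relative viability is the treated-to-vehicle ratio of nuclei counts. Values are medians of duplicate plates.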

AT-7519 + Linsitinib = compound: O=C(NC1CCNCC1)c1n[nH]cc1NC(=O)c1c(Cl)cccc1Cl [AT-7519] + C[C@]1(O)C[C@@H](c2nc(-c3ccc4ccc(-c5ccccc5)nc4c3)c3c(N)nccn32)C1 [Linsitinib] (partner 1 µM)
In short: as §1

AT-7519 + Alpelisib = compound: O=C(NC1CCNCC1)c1n[nH]cc1NC(=O)c1c(Cl)cccc1Cl [AT-7519] + Cc1nc(NC(=O)N2CCC[C@H]2C(N)=O)sc1-c1ccnc(C(C)(C)C(F)(F)F)c1 [Alpelisib] (partner 2 µM)
In short: as §1

AT-7519 + Vorinostat = compound: O=C(NC1CCNCC1)c1n[nH]cc1NC(=O)c1c(Cl)cccc1Cl [AT-7519] + O=C(CCCCCCC(=O)Nc1ccccc1)NO [Vorinostat] (partner 1 µM)
In short: as §1

Cell Line | relative viability (AT-7519 + OSI-027; first compound 0.01 µM) | relative viability (AT-7519 + OSI-027; first compound 0.03162 µM) | relative viability (AT-7519 + OSI-027; first compound 0.3162 µM) | relative viability (AT-7519 + OSI-027; first compound 1 µM) | relative viability (AT-7519 + Linsitinib; first compound 0.01 µM) | relative viability (AT-7519 + Linsitinib; first compound 0.03162 µM) | relative viability (AT-7519 + Linsitinib; first compound 0.3162 µM) | relative viability (AT-7519 + Linsitinib; first compound 1 µM) | relative viability (AT-7519 + Alpelisib; first compound 0.01 µM) | relative viability (AT-7519 + Alpelisib; first compound 0.03162 µM) | relative viability (AT-7519 + Alpelisib; first compound 0.3162 µM) | relative viability (AT-7519 + Alpelisib; first compound 1 µM) | relative viability (AT-7519 + Vorinostat; first compound 0.01 µM) | relative viability (AT-7519 + Vorinostat; first compound 0.03162 µM) | relative viability (AT-7519 + Vorinostat; first compound 0.3162 µM) | relative viability (AT-7519 + Vorinostat; first compound 1 µM)
ABC-1 | 0.523 | 0.455 | 0.326 | 0.151 | 0.784 | 0.715 | 0.788 | 0.243 | 0.962 | 1.01 | 0.724 | 0.416 | 1.16 | 1.14 | 1.01 | 1.28
NCI-H2170 | 0.782 | 0.685 | 0.687 | 0.719 | – | – | – | – | 0.828 | 0.796 | 0.794 | 0.81 | 0.718 | 0.867 | 0.869 | 0.736
NCI-H1299 | – | – | – | – | 1.1 | 0.96 | 0.946 | 0.645 | 1.1 | 1.08 | 1.17 | 1.15 | – | – | – | –
EBC-1 | – | – | – | – | 0.935 | 1.01 | 0.938 | 0.934 | 0.863 | 0.835 | 0.734 | 0.55 | – | – | – | –
NCI-H2347 | 0.457 | 0.389 | 0.358 | 0.229 | 1.08 | 1.01 | 0.919 | 0.793 | 1.2 | 0.952 | 1.08 | 0.771 | 0.463 | 0.527 | 0.637 | 0.379
NCI-H1993 | 0.569 | 0.494 | 0.49 | 0.563 | 0.707 | 0.738 | 0.663 | 0.585 | 0.728 | 0.677 | 0.676 | 0.614 | 0.629 | 0.605 | 0.82 | 0.539
NCI-H322M | 0.539 | 0.521 | 0.422 | 0.428 | 0.95 | 0.926 | 0.962 | 0.946 | 0.823 | 0.725 | 0.721 | 0.824 | 0.846 | 0.982 | 0.731 | 0.83
NCI-H838 | 0.345 | 0.39 | 0.276 | 0.127 | 1.03 | 1.01 | 0.74 | 0.149 | 1.05 | 0.972 | 0.966 | 0.141 | 0.758 | 0.653 | 0.62 | 0.153
HARA | 0.425 | 0.36 | 0.523 | 0.423 | 1.15 | 0.92 | 0.945 | 0.671 | 0.836 | 0.72 | 0.816 | 0.541 | 0.479 | 0.527 | 0.588 | 0.223
NCI-H2087 | 0.729 | 0.649 | 0.493 | 0.151 | 1.07 | 1.1 | 0.78 | 0.141 | 1.14 | 1.21 | 1.01 | 0.161 | 1.01 | 0.632 | 0.607 | 0.206
NCI-H1437 | 0.755 | 0.938 | 0.824 | 0.645 | 1.14 | 1.17 | 0.81 | 0.344 | 1.05 | 0.931 | 0.816 | 0.477 | 0.815 | 0.842 | 0.929 | 0.353
NCI-H1648 | 0.265 | – | 0.262 | 0.293 | – | – | – | – | – | – | – | – | 0.479 | – | 0.29 | 0.3
NCI-H1792 | – | – | 0.869 | 0.791 | 0.291 | 0.358 | 0.441 | 0.444 | 0.324 | 0.536 | 0.767 | 0.51 | – | – | – | –
ChaGo-K-1 | 0.642 | 0.556 | 0.457 | 0.447 | – | – | – | – | – | – | – | – | 0.734 | 0.741 | 0.797 | 0.752
NCI-H650 | 0.529 | 0.496 | 0.498 | 0.711 | 0.854 | 0.791 | 1.04 | 0.693 | 1.09 | 1 | 1.09 | 1.08 | 0.504 | 0.459 | 0.46 | 0.599
COR-L23 | 0.672 | 0.778 | 0.459 | 0.294 | 0.82 | 0.776 | 0.481 | 0.137 | 0.987 | 0.746 | 0.348 | 0.119 | 0.508 | 0.507 | 0.344 | 0.152
COR-L 105 | 0.6 | 0.58 | 0.674 | 0.401 | 0.962 | 0.907 | 0.867 | 0.516 | 1.13 | 0.996 | 0.927 | 0.507 | 0.791 | 0.856 | 0.686 | 0.499
LK-2 | 0.182 | 0.217 | 0.19 | 0.189 | 0.514 | 0.448 | 0.368 | 0.255 | 0.697 | 1.12 | 0.827 | 0.514 | 0.247 | 0.258 | 0.332 | 0.241
201T | 0.694 | 0.739 | 1.01 | 0.812 | 0.933 | 1.04 | 1.06 | 1.05 | 0.972 | 1.05 | 1.02 | 1.09 | 0.975 | 0.952 | 1.01 | 1.12
A549 | – | – | – | – | 0.658 | 0.552 | 0.629 | 0.39 | 0.882 | 0.708 | 0.69 | 0.322 | – | – | – | –
NCI-H1563 | 0.737 | 0.794 | 0.722 | 0.728 | 1.2 | 1.25 | 1.25 | 1 | 0.868 | 0.942 | 0.942 | 0.781 | – | – | – | –
NCI-H522 | – | 0.77 | 0.609 | 0.792 | – | – | – | – | – | – | – | – | 0.933 | 0.815 | 0.963 | 1.05
IA-LM | – | – | – | – | 0.765 | 0.491 | 0.442 | 0.548 | 0.904 | 0.617 | 0.779 | 0.488 | 0.607 | 0.501 | 1.01 | 0.723
NCI-H1703 | – | – | – | – | 0.854 | 0.835 | 0.379 | 0.149 | 0.282 | 0.297 | 0.299 | 0.156 | – | – | – | –
SW 900 | 0.489 | 0.581 | 0.624 | 0.424 | – | – | – | – | – | – | – | – | 0.398 | 0.482 | 0.294 | 0.493
